Results taken from patent US4459290A, “C-23-Modified derivatives of OMT, pharmaceutical compositions and method of use” (priority 1982, dated 1984).
≈ marks a conversion by molar mass, not a printed value. Like-named read-outs stand apart in the source and are kept apart here.

What was measured:
Escherichia coli EC14 = assay: MIC, standard agar-dilution assay (Table V); format: cell-based; conditions: Escherichia coli
How it was run: (§1)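 Growth inhibition in liquid medium, in a routine microtiter broth-dilution series, gave the MIC against staphylococci and pasteurellae; the gram-negative enteric strain was tested by conventional agar dilution instead.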

Escherichia coli N10 = assay: MIC, standard agar-dilution assay (Table V); format: cell-based; conditions: Escherichia coli, N10
How it was run: as §1

[1] = tested on: Klebsiella pneumoniae KAE; assay: MIC, standard agar-dilution assay (Table V); format: cell-based; conditions: Klebsiella pneumoniae
How it was run: as §1

[2] = tested on: Klebsiella pneumoniae X26; assay: MIC, standard agar-dilution assay (Table V); format: cell-based; conditions: Klebsiella pneumoniae, X26
Method: (§2) Especially noteworthy is the improved activity against gram-negative bacteria for several derivatives when compared to the activity of OMT. […] The MIC's in Tables V and VI were determined by standard agar-dilution assays. The MIC's in Table VII were obtained using a conventional broth-dilution microtiter test.

Shigella sonnei N9 = assay: MIC, standard agar-dilution assay (Table V); format: cell-based
How it was run: as §1

[3] = tested on: Staphylococcus aureus S13E; assay: MIC, standard agar-dilution assay (Table V); format: cell-based; conditions: Staphylococcus aureus, S13E
Method: as §2

[4] = tested on: Staphylococcus aureus V41; assay: MIC, standard agar-dilution assay (Table V); format: cell-based; conditions: Staphylococcus aureus, V41
Method: as §2

[5] = tested on: Staphylococcus aureus X1.1; assay: MIC, standard agar-dilution assay (Table V); format: cell-based; conditions: Staphylococcus aureus, X1.1
Method: as §2

[6] = tested on: Staphylococcus aureus X400; assay: MIC, standard agar-dilution assay (Table V); format: cell-based; conditions: Staphylococcus aureus, X400
Method: as §2

[7] = tested on: Staphylococcus epidermidis EPI1; assay: MIC, standard agar-dilution assay (Table V); format: cell-based; conditions: Staphylococcus epidermidis; S. epidermidis EPI1; agar dilution; read-out: MIC
Method: as §2

[8] = tested on: Staphylococcus epidermidis EPI2; assay: MIC, standard agar-dilution assay (Table V); format: cell-based; conditions: Staphylococcus epidermidis; S. epidermidis EPI2; agar dilution; read-out: MIC
Method: as §2

Streptococcus Group 9960 = assay: MIC, standard agar-dilution assay (Table V); format: cell-based; conditions: GROUP9960
Method: as §2

[9] = tested on: Streptococcus Group D X66; assay: MIC, standard agar-dilution assay (Table V); format: cell-based
Method: as §2

[10] = tested on: Haemophilus influenzae Holt; assay: MIC, standard agar-dilution assay (Table V); format: cell-based; conditions: Haemophilus influenzae
Method: (§3) The MIC's in Tables V and VI were determined by standard agar-dilution assays. The MIC's in Table VII were obtained using a conventional broth-dilution microtiter test.

[11] = tested on: Haemophilus influenzae R252; assay: MIC, standard agar-dilution assay (Table V); format: cell-based; conditions: Haemophilus influenzae
Method: as §3

[12] = tested on: Streptococcus pyogenes C203; assay: MIC, standard agar-dilution assay (Table V); format: cell-based; conditions: Streptococcus pyogenes, C203
Method: as §3

[13] = tested on: Streptococcus pneumoniae Park I; assay: microbe, parasite or virus in culture; format: cell-based; conditions: Streptococcus pneumoniae; read-out: MIC
Method: as §2

[14] = tested on: Enterobacter aerogenes C32; assay: MIC, standard agar-dilution assay (Table VI); format: cell-based; conditions: Klebsiella aerogenes
Method: as §2

Proteus rettgeri C24 = assay: MIC, standard agar-dilution assay (Table VI); format: cell-based; conditions: Providencia rettgeri, P. rettgeri C24
Method: as §2

Proteus rettgeri PR7 = assay: MIC, standard agar-dilution assay (Table VI); format: cell-based; conditions: Providencia rettgeri; P. rettgeri PR7; agar dilution; read-out: MIC
Method: as §2

[15] = tested on: Salmonella heidelberg X514; assay: MIC, standard agar-dilution assay (Table VI); format: cell-based; conditions: Salmonella enterica
Method: as §2

Mycoplasma gallisepticum = assay: MIC, broth-dilution microtiter test (Table VII); format: cell-based; conditions: Mycoplasmoides gallisepticum
Method: as §2

Mycoplasma hyorhinis = assay: MIC, broth-dilution microtiter test (Table VII); format: cell-based; conditions: M. hyorhinis; broth-dilution microtiter; read-out: MIC
Method: as §2

Mycoplasma synoviae = assay: MIC, broth-dilution microtiter test (Table VII); format: cell-based; conditions: Mycoplasmopsis synoviae; M. synoviae; broth-dilution microtiter; read-out: MIC
Method: as §2

[16] = tested on: Pasteurella hemolytica 22C; assay: MIC, broth-dilution microtiter test (Table VII); format: cell-based; conditions: Pasteurella, P. hemolytica 22C, read-out: MIC
How it was run: as §1

[17] = tested on: Pasteurella hemolytica 23C; assay: MIC, broth-dilution microtiter test (Table VII); format: cell-based; conditions: Pasteurella, P. hemolytica 23C, read-out: MIC
How it was run: as §1

[18] = tested on: Pasteurella hemolytica 41D; assay: MIC, broth-dilution microtiter test (Table VII); format: cell-based; conditions: Pasteurella, P. hemolytica 41D, read-out: MIC
How it was run: as §1

[19] = tested on: Pasteurella multocida 17E; assay: MIC, broth-dilution microtiter test (Table VII); format: cell-based; conditions: Pasteurella multocida; P. multocida 17E, bovine isolate; broth-dilution microtiter; read-out: MIC
How it was run: (§4)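 Broth microdilution, run as a conventional microtiter test, supplied MICs for the gram-positive S. aureus and the Pasteurella isolates. Enterobacter data instead rest on a standard agar-dilution procedure.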

[20] = tested on: Pasteurella multocida 22A; assay: MIC, broth-dilution microtiter test (Table VII); format: cell-based; conditions: Pasteurella multocida
How it was run: as §4

[21] = tested on: Pasteurella multocida 40G; assay: MIC, broth-dilution microtiter test (Table VII); format: cell-based; conditions: Pasteurella multocida; P. multocida 40G; broth-dilution microtiter; read-out: MIC
How it was run: as §4

[22] = tested on: Pasteurella multocida 60A; assay: MIC, broth-dilution microtiter test (Table VII); format: cell-based; conditions: Pasteurella multocida; P. multocida 60A, avian isolate; broth-dilution microtiter; read-out: MIC
How it was run: as §4

[23] = tested on: Pasteurella multocida 68C; assay: MIC, broth-dilution microtiter test (Table VII); format: cell-based; conditions: Pasteurella multocida; P. multocida 68C; broth-dilution microtiter; read-out: MIC
How it was run: as §4

Staphylococcus aureus = assay: MIC, broth-dilution microtiter test (Table VII); format: cell-based; conditions: Staphylococcus aureus
How it was run: as §4

Streptococcus sp. 80 = assay: MIC, broth-dilution microtiter test (Table VII); format: cell-based
Method: as §2

[24] = tested on: Streptococcus pyogenes C203; assay: ED50 in mice experimentally infected with S. pyogenes C203 (Table VIII); format: in vivo
Method: The C-23 modified derivatives of OMT of this invention have shown in vivo antimicrobial activity against experimental infections. When two doses of test compound were administered to mice experimentally infected with a gram-positive bacterium, S. pyogenes C203, the activity observed was measured as an ED50 value [effective dose in mg/kg to protect 50% of the test animals: see Warren Wick, et al., J. Bacteriol. 81, 233-235 (1961)].

[25] = C203, sc, mice, subcutaneous, doses given 1 and 4 hours postinfection, read-out: ED50, Subcutaneous

| Compound | MIC (Escherichia coli N10) [µg/mL] | MIC [2] [µg/mL] | MIC (Shigella sonnei N9) [µg/mL] | MIC [3] [µg/mL] | MIC [4] [µg/mL] | MIC [5] [µg/mL] | MIC [6] [µg/mL] | MIC [7] [µg/mL] | MIC [8] [µg/mL] | MIC [10] [µg/mL] | MIC [12] [µg/mL] | MIC [13] [µg/mL] | MIC (Proteus rettgeri C24) [µg/mL] | MIC (Proteus rettgeri PR7) [µg/mL] | MIC (Mycoplasma hyorhinis) [µg/mL] | MIC (Mycoplasma synoviae) [µg/mL] | MIC [16] [µg/mL] | MIC [17] [µg/mL] | MIC [18] [µg/mL] | MIC [19] [µg/mL] | also measured |
| --- | --- | --- | --- | --- | --- | --- | --- | --- | --- | --- | --- | --- | --- | --- | --- | --- | --- | --- | --- | --- | --- |
| CCC1OC(=O)CC(O)C(C)C(OC2OC(C)C(O)C(N(C)C)C2O)C(CC=O)CC(C)C(=O)C=CC(C)=CC1CSc1nnc(C)s1 (stereo not drawn) [Compound 3, 23-Deoxy-23-(5-methyl-1,3,4-thiadiazol-2-yl)thio-OMT] | 64 (≈ 89.9 µM) | 4 (≈ 5.62 µM) | 64 (≈ 89.9 µM) | 0.25 (≈ 0.351 µM) | 0.25 (≈ 0.351 µM) | 0.25 (≈ 0.351 µM) | 0.25 (≈ 0.351 µM) | 0.125 (≈ 0.176 µM) | 0.25 (≈ 0.351 µM) | 2 (≈ 2.81 µM) | 0.125 (≈ 0.176 µM) | 0.06 (≈ 0.0843 µM) | 64 (≈ 89.9 µM) | 64 (≈ 89.9 µM) | 6.25 (≈ 8.78 µM) | 0.39 (≈ 0.548 µM) | 12.5 (≈ 17.6 µM) | 6.25 (≈ 8.78 µM) | 6.25 (≈ 8.78 µM) | 6.25 (≈ 8.78 µM) | MIC (Escherichia coli EC14; E. coli EC14, agar dilution, read-out: MIC): 64 µg/mL (≈ 89.9 µM); MIC ([1]; K. pneumoniae KAE, agar dilution, read-out: MIC): > 128 µg/mL; MIC (Streptococcus Group 9960): 0.25 µg/mL (≈ 0.351 µM); MIC [9]: 0.25 µg/mL (≈ 0.351 µM); MIC ([11]; H. influenzae R252, ampicillin-resistant strain, agar dilution, read-out: MIC): 2 µg/mL (≈ 2.81 µM); MIC ([14]; E. aerogenes C32, agar dilution, read-out: MIC): > 128 µg/mL; MIC ([15]; S. heidelberg X514, agar dilution, read-out: MIC): > 128 µg/mL; MIC (Mycoplasma gallisepticum; M. gallisepticum, broth-dilution microtiter, read-out: MIC): 0.19 µg/mL (≈ 0.267 µM); MIC ([20]; 22A): 3.12 µg/mL (≈ 4.38 µM); MIC [21]: 1.56 µg/mL (≈ 2.19 µM); MIC [22]: 6.25 µg/mL (≈ 8.78 µM); MIC [23]: 6.25 µg/mL (≈ 8.78 µM); MIC (Staphylococcus aureus; S. aureus, broth-dilution microtiter, read-out: MIC): 0.78 µg/mL (≈ 1.1 µM); MIC (Streptococcus sp. 80; Streptococcus sp. 80, broth-dilution microtiter, read-out: MIC): 0.39 µg/mL (≈ 0.548 µM); ED50 ([24]; C203, mice, oral, doses given 1 and 4 hours postinfection, read-out: ED50, Oral): 81 mg/kg; ED50 [24, 25]: 22.3 mg/kg |
| CCC1OC(=O)CC(O)C(C)C(OC2OC(C)C(O)C(N(C)C)C2O)C(CC=O)CC(C)C(=O)C=CC(C)=CC1CSc1nnnn1C (stereo not drawn) [Compound 5, 23-Deoxy-23-(1-methyltetrazol-5-yl)thio-OMT] | > 128 | 4 (≈ 5.75 µM) | 64 (≈ 92 µM) | 0.5 (≈ 0.719 µM) | 0.5 (≈ 0.719 µM) | 0.5 (≈ 0.719 µM) | 0.5 (≈ 0.719 µM) | 0.25 (≈ 0.359 µM) | 0.5 (≈ 0.719 µM) | 4 (≈ 5.75 µM) | 0.25 (≈ 0.359 µM) | 0.06 (≈ 0.0862 µM) | 64 (≈ 92 µM) | 64 (≈ 92 µM) | 6.25 (≈ 8.98 µM) | 0.78 (≈ 1.12 µM) | 12.5 (≈ 18 µM) | 12.5 (≈ 18 µM) | 12.5 (≈ 18 µM) | 6.25 (≈ 8.98 µM) | MIC (Escherichia coli EC14; EC14): 64 µg/mL (≈ 92 µM); MIC [1]: > 128 µg/mL; MIC (Streptococcus Group 9960; Streptococcus Group 9960, agar dilution, read-out: MIC): 0.5 µg/mL (≈ 0.719 µM); MIC ([9]; Streptococcus Group D X66, agar dilution, read-out: MIC): 0.5 µg/mL (≈ 0.719 µM); MIC ([11]; R252): 2 µg/mL (≈ 2.87 µM); MIC ([14]; C32): > 128 µg/mL; MIC ([15]; X514): > 128 µg/mL; MIC (Mycoplasma gallisepticum): 1.56 µg/mL (≈ 2.24 µM); MIC ([20]; P. multocida 22A, broth-dilution microtiter, read-out: MIC): 6.25 µg/mL (≈ 8.98 µM); MIC [21]: 3.12 µg/mL (≈ 4.48 µM); MIC [22]: 6.25 µg/mL (≈ 8.98 µM); MIC [23]: 6.25 µg/mL (≈ 8.98 µM); MIC (Staphylococcus aureus): 1.56 µg/mL (≈ 2.24 µM); MIC (Streptococcus sp. 80; Streptococcus, SP.80): 1.56 µg/mL (≈ 2.24 µM); ED50 ([24]; C203, po, read-out: ED50, Oral): > 100 mg/kg; ED50 [24, 25]: 13.7 mg/kg |
